For assay [1], the target named is T1, Cruzipain (Trypanosoma cruzi, UniProt P25779).
T1 construct: Cruzipain (CZP) was purified to homogeneity from epimastigotes of the Tul 2 strain; from tissue; host or cells: Trypanosoma cruzi epimastigotes, Tul 2 strain (natural enzyme, not recombinant)
In kind it is biochemical. To be noted: for Hit call by statistically robust cutoff (µC+ − 3 × SDC+): compound 25 µM, singlet. The protocol: (§1) Assay was performed in a solid black 384-well plate (final reaction volume ~80 μL) and the release of 7-amino-4-methylcoumarin was monitored continuously at 30 °C with a Beckman Coulter DTX 880 Multimode Reader (Radnor, Pennsylvania, USA) using standard 340 nm excitation and 450 nm emission filter set. Final substrate concentration was set to 2 μM to match previously reported conditions[31] and being close to the KM value for this substrate. Optimal Cruzipain assay concentration (5.8 nM) was selected from 2-fold serial dilutions to match three criteria: (i) being linearly proportional to V0, (ii) display robust signal evolution at 2 μM substrate concentration and (iii) display linear kinetics for enough time to perform several reading cycles (at least 10 cycles, minimum time between cycles: 264 sec) through the 384-wells. In all cases, E-64(final concentration 125 nM) was used as positive inhibition control.
To perform the high-throughput screening, 1 μL of each compound (2 mM in DMSO), E-64 (10 μM in DMSO) or DMSO (negative controls) were dispensed into 384-well Corning black solid-bottom assay plates. Then, 40 μL of 100 mM NaAc, 5 mM DTT, 0.01% Triton X-100 pH 5.5 containing Cruzipain (11,6 nM) were added to each well, plates were homogenized (30 seg, orbital, medium intensity) and each well subjected to a single autofluorescence read (exc/ems = 340/450 nm). Plates were incubated in darkness for 15 min at 30 °C and then 40 μL of Z-FR-AMC (4 μM) in assay buffer were added to each well to start the reaction. After homogenization (30 seg, orbital, medium intensity), the fluorescence of AMC (exc/ems = 340/450 nm) was acquired kinetically for each well (12 read cycles, one cycle every 300 seconds).
Raw screening measurements were used to determine the slope (dF/dt) of progression curves by linear regression for control and compound wells. In the case of control-dependent hit selection criterium, percent inhibition (%Inh) was calculated for each compound according to Eq. 6:6 %Inh=100⋅[1−(dF/dt^WELL−µ^C−)/(µ^C+−µ^C−)] where dF/dt^WELL represents the slope of each compound well and µ^C+ and µ^C− the average of Cruzipain (no-inhibition) and substrate (no-enzyme) controls, respectively.

Assay [2] concerns the target T1, Cruzipain. In kind it is biochemical. To be noted: E-64 1 nM, Cruzipain 5.8 nM, 24 replicates. How it is done: as §1, with “In all cases, E-64(final concentration 125 nM) was used as positive inhibition control.” left out
The next assay deals with T. cruzi. The arrangement: method as in PMID 9705954, PMID 17698625, PMID 16304193. The note with it: immunocompetent and immunodeficient mice, dogs; cited from earlier work.
For assay [3], the target named is T1, Cruzipain. In kind it is biochemical. The note with it: for Behavior of dose-response curve: compound 62.5 µM – 7.5 pM; for Ki (tight-binding, suggested from IC50 in the order of the enzyme concentration): estimate from IC50 values. The protocol:
as §1
To avoid any positional and/or association bias, we randomly defined the row position for each compound. One μL of compounds stock (10 mM in DMSO) and E-64 (10 mM in DMSO) were added to the first well of column 1, followed by addition of 40 μL of 100 mM NaAc, 5 mM DTT, 0.01% Triton X-100 pH 5.5 buffer. After addition of 20 μL of the same buffer to subsequent wells of the plate, 22 serial 2-fold dilutions were made horizontally. The last two positions of every row were used, alternatively, for C^+ and C^− controls to reduce any positional and/or association bias. Then, 20 μL of activity buffer containing Cruzipain ([…]) were added to each well, except for those corresponding to C^−; completed with 20 μL of activity buffer. After homogenization, 15 minutes of incubation at 30 °C and autofluorescence measurement, 40 μL of a 4 μM solution of Z-FR-AMC substrate (in activity buffer) was added to the previous mix. Data collection and processing were performed exactly as described above. Percentage of Cruzipain residual activity was calculated for each condition according to Eq. 7:7 %Res.Act.^CRUZIPAIN=100⋅[(dF/dt^WELL−µ^C−)/(µ^C+−µ^C−)] where dF/dt^WELL represents the slope of each compound well and µ^C+ and µ^C− the average of Cruzipain (no-inhibition) and substrate (no-enzyme) controls, respectively. The IC50 and Hill slope parameters for each compound were estimated by fitting the four-parameter Hill equation to experimental data from dose-response curves using the GraphPad Prism program (version 5.03).

For assay [4], the target named is T1, Cruzipain. The assay is described as follows: biochemical. The note with it: Cruzipain 11.6 nM; for IC50: Z-FR-AMC 2 μM, pH 5.5, 30 °C, 15 min preincubation, four-parameter Hill fit; for Hill Slope: four-parameter Hill fit of dose-response curve.
For assay [5], the system named is T. cruzi intracellular amastigotes. The arrangement: method as in PMID 25740547. To be noted: T. cruzi intracellular amastigotes vs T. brucei axenic bloodstream forms; cited from earlier work.

T1 sequence (P25779 123-467): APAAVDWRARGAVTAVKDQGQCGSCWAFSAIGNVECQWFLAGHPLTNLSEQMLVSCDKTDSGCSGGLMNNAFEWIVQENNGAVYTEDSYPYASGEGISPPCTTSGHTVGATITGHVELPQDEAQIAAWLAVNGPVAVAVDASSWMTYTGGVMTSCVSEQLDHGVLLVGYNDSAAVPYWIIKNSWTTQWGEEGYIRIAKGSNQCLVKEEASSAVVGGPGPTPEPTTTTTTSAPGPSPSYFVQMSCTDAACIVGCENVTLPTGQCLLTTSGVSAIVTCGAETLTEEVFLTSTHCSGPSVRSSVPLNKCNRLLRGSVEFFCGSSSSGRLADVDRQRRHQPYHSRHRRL

Take `CC(C)C[C@H](NC(=O)[C@H]1O[C@@H]1C(=O)O)C(=O)NCCCCN=C(N)N` (relative stereo) [Compound E-64, trans-epoxysuccinyl-L-leucylamido-(4-guanidino)butane, reference compound]: the “E-64 Control activity slope, Mean, Plate 2” value at Cruzipain [1] (E-64 final concentration 125 nM, Cruzipain control 210.84) was found to be 6.36 RFU/sec. Further, the “E-64 Control activity slope, Mean, Plate 1” value on Cruzipain [1] (E-64 final concentration 125 nM, Cruzipain control 893.31) is 19.30 RFU/sec. In addition, the “average inhibition with respect to Cruzipain control” value on Cruzipain [2] is 9.87%.
Turning to `CN1CCN(C(=O)N[C@@H](Cc2ccccc2)C(=O)N[C@H](/C=C/S(=O)(=O)c2ccccc2)CCc2ccccc2)CC1` [Compound K777, N-[(2 S)-1-[[(E,3 S)-1-(benzenesulfonyl)-5-phenylpent-1-en-3-yl]amino]-1-oxo-3-phenylpropan-2-yl]-4-methylpiperazine-1-carboxamide], in the assay with T. cruzi, the “Efficacy in preclinical models of T. cruzi infection” value is recorded as “efficacious”.
In the case of `Cl.Cl.O=c1ccc2ccc(F)c3c2n1C[C@H]3CN1CCN(CC(O)c2cc3c(cn2)OCS3)CC1` (stereo partly shown) [TCMDC-143158], on Cruzipain [1], the “Hit call by statistically robust cutoff (µC+ − 3 × SDC+)” value (from here on “Hit call by statistically robust cutoff”) is “positive hits”.
Regarding `CC1(Oc2cncc(Cl)c2)CCN(Cc2cc3ccccc3[nH]2)C1` (stereo not shown) [TCMDC-143162], on Cruzipain [1], the “Hit call by statistically robust cutoff” value is recorded as “positive hits”.
`NCC(Cc1ccccc1)NC(=O)c1cnc(-c2c[nH]c3ncccc23)s1.O=C(O)C(F)(F)F.O=C(O)C(F)(F)F` (stereo not shown) [TCMDC-143176]: the “Behavior of dose-response curve” value on Cruzipain [3] is on record as “activation phenotype at highest concentrations”.
The IC50 is the point on the concentration scale where inhibition reaches its midpoint. Take `COc1ccc(OC)c(S(=O)(=O)N(Cc2c(F)cccc2F)C2CCN(C#N)C2)c1` (stereo not shown) [TCMDC-143370]: at Cruzipain [4], 5650 µM corresponded to half-maximal inhibition (IC50) and the “Hill Slope” value was −0,7542. Further, at Cruzipain [3], the “IC50 range against Cruzipain, in words” value is given as “low micromolar range”.
In the case of `COc1ccc2ncc(=O)n(CCN3CC[C@H](NCc4ncc(Cl)c5[nH]ncc45)[C@H](O)C3)c2n1` [TCMDC-143373], at Cruzipain [3], the “Behavior of dose-response curve” value is “erratic behavior”. Further, the “Hit call by statistically robust cutoff” value on Cruzipain [1] was “positive hits”.
As to `COc1cc(OC)cc(C(=O)N[C@@H](CC(C)C)C(=O)NC2(C#N)CC2)c1` [TCMDC-143390], at Cruzipain [4], it took 0.0678 µM to reach half-maximal inhibition (IC50) and the “Hill Slope” value was −0,9354. Moreover, on Cruzipain [3], the “IC50 range against Cruzipain, in words” value is on record as “submicromolar range” and the “Ki (tight-binding, suggested from IC50 in the order of the enzyme concentration)” value is on record as 1 to 4 × 10^−8 M.
Turning to `CC(C)C[C@H](NC(=O)c1ccc(-c2ccccc2)o1)C(=O)NC1(C#N)CC1` [TCMDC-143393], on Cruzipain [4], half-maximal inhibition (IC50) was put at 0.0303 µM and the “Hill Slope” value was −0,957. In assay [5], the “IC50 against T. cruzi relative to T. brucei” value is “between one and two orders of magnitude higher”. At Cruzipain [3], the “IC50 range against Cruzipain, in words” value is reported as “submicromolar range” and the “Ki (tight-binding, suggested from IC50 in the order of the enzyme concentration)” value is given as 1 to 4 × 10^−8 M.
As to `COc1cc(F)c2ncc(F)c(CCN3CC[C@H](NCc4cc5c(cn4)OCS5)[C@@H](O)C3)c2c1` [TCMDC-143510], at Cruzipain [4], half-maximal inhibition (IC50) was put at 16.1 µM and the “Hill Slope” value is −0,7998.
For `COc1ccc2ncc(Cl)c(CCN3CCC(NCc4cc5c(cn4)OCS5)C(O)C3)c2n1` (stereo not shown) [TCMDC-143513], on Cruzipain [4], inhibition was half-maximal at 14.9 µM (IC50) and the “Hill Slope” value was −0,8108.
On to `COc1ccc2nccc([C@H](O)CN3CC[C@H](NC(=O)c4ccc(Br)cc4)[C@@H](O)C3)c2n1` [TCMDC-143527], for which the “Hit call by statistically robust cutoff” value at Cruzipain [1] was “positive hits”.
Consider `NC(N)=Nc1nc(-c2ccc(NC(N)=NCCN3CCCC3)cc2)cs1` [TCMDC-143640], for which, at Cruzipain [4], the midpoint of inhibition, the IC50, lay at 3390 µM and the “Hill Slope” value is on record as −0,9825.

Source of the values: publication PMC5608908, “Novel scaffolds for inhibition of Cruzipain identified from high-throughput screening of anti-kinetoplastid chemical boxes” (Scientific Reports, 2017).
